Experimental data published in US20030134859A1 (SANKYO COMPANY, LIMITED, priority 2000, published 2003).

Tested on: ABCA1 mRNA
Test: Quantitative analysis of ABCA1 mRNA (TaqMan PCR) in RAW264.7 cells
Type: cell-based, mouse
Conditions: 100 nM test compound, 24 hr, normalised to β-actin, DMSO = 100
Experimental: The mouse monocyte/macrophage cell line, RAW264.7 (ATCC TIB71) was purchased from Dainippon Pharmaceutical Co., Ltd. As the medium, the Dulbecco's modified Eagle's medium (DMEM medium; GIBCO, Cat. No. 11995-040) containing bovine fetal serum (the final concentration: 10% (v/v), MOREGATE, lot No. 474030), penicillin G (the final concentration: 50 units/mL, GIBCO) and streptomycin (the final concentration: 20 μg/mL, GIBCO) was used.
The culture of RAW264.7 cells was carried out in a CO2 incubator (37° C., 95% R.H., 5% of CO2).
A 2 ml volume of RAW264.7 cells suspension (1×10^6 cells/mL) was plated in each well of a 6-well plate (2×10^6 cells/well) and the cells were incubated for 2 hr in a CO2 incubator. The test compounds dissolved in DMSO were diluted with DMEM medium by 20 times, and were added to the wells at a volume of 4 μL/well (final concentration of the test compound: 100 nM). As the control, the DMSO solution was diluted with the DMEM medium by 20 times, and was added to the wells at the volume of 4 μL/well. After the cells were cultured in a CO2 incubator for 24 hr, the medium was removed and the total RNA was purified by using an RNeasy Mini Kit (Qiagen), according to the protocol attached. The concentration of the RNA in the samples obtained was calculated from absorbance at 260 nm (A260=1=40 μg/ml). Six (6) μg of total RNA were diluted with RNAase-free water so as to be 22.6 μL, which was heated at 65° C. for 10 min, and then was cooled on ice. The RNA in the solution was used as the template, and the cDNA was synthesized by using a First-strand cDNA Synthesis Kit (Amersham Pharmacia Biotech). In this reaction, a solution was prepared having the following composition and was reacted at 37° C. for 1 hr.
After the reaction, 3 μL of soution were collected from each of the reaction mixtures of the test compound-treated cell samples and that of the control cell samples. The mixed solution was used as the standard solution. The standard solution and each reaction solution were purified with a Chroma Spin-100+DEPC-H2O Column according to the protocol attached, and they were used as the template for TaqMan PCR (Template). In order to draw the calibration curve, the standard solution was diluted by every 5 times for 5 steps and each solution was used for TaqMan PCR. TaqMan PCR was carried out in ABCA1 and β-actin. As Primers for use in the TaqMan PCR, 4 oligonucleotides (abca1 forward (S3), abca1 reverse (AS3), β-actin forward (S4) and β-actin reverse (AS4)) were designed which are shown in sequences No. 5 to 8 in the sequence table described later. The synthesis and purification of these 4 oligomers was ordered from Amersham Pharmacia Biotech Co.
As FAM-TAMRA labelled TaqMan Probe, 2 kinds of oligonucleotides (abca1 (p1) and β-actin (p2)) were designed and were ordered from Applied Biosystems Co. to synthesize and purify.
The following reaction mixture of ABCA1 or β-actin was divided into 2 wells of a MicroAmp Optical 96-well Reaction Plate (Applied Biosystem Co.). TaqMan Universal PCR Master Mix was purchased from Applied Biosystem Co.
The plate was covered with a MicroAmp Optical Cap (Applied Biosystems Co.), and TaqMan PCR was carried out by using an ABI PRISM 7,700 Sequence Detection System (Applied Biosystem Co.) under the following conditions:
An analysis was made according to the procedures described in the manual of Sequence Detection Software (Applied Biosystem Co.) and the increased rate of ABCA1 mRNA due to the test compound was calculated based on the following equation.
A: Amount of the ABCA1 mRNA in the presence of the test compound
B: Amount of the β-actin mRNA in the presence of the test compound
C: Amount of the ABCA1 mRNA in the presence of DMSO
D: Amount of the β-actin mRNA in the presence of DMSO
Increase Rate (%) of ABCA1 mRNA=(A/B)/(C/D)×100

O=C(Nc1ccc(-c2ccc(O)cc2)cc1)c1cc([N+](=O)[O-])ccc1Cl [Example 135, N-[4-(4-Hydroxyphenyl)phenyl]-2-(chloro-5-nitrophenyl)carboxamide]
Rate of Increase (%) of ABCA1 mRNA: 163.0%
